Results: patent US20130029381A1, “MICROORGANISMS FOR THE PRODUCTION OF 1,4-BUTANEDIOL, 4-HYDROXYBUTANAL, 4-HYDROXYBUTYRYL-COA, PUTRESCINE AND RELATED COMPOUNDS, AND METHODS RELATED THERETO” (GENOMATICA, INC., priority 2009, published 2013)

Tests used:
[1] = target: T1, L(+)-lactate dehydrogenase from A. eutrophus (Cupriavidus necator, UniProt Q07251); details: compared with that on pyruvate; cited from earlier work
T1 sequence (Q07251 1-349): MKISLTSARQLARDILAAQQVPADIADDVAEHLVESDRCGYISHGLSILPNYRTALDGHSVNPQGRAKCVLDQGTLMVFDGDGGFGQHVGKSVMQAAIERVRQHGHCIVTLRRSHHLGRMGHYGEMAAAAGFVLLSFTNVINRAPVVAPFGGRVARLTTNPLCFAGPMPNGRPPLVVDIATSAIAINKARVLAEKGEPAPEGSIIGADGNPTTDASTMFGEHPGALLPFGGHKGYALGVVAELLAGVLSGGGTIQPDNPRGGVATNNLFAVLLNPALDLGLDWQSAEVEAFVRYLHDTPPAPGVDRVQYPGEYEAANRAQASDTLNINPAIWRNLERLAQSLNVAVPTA

[2] = target: homoserine kinase (Escherichia coli, UniProt P00547); details: cited from earlier work
Chain of homoserine kinase (P00547 whole entry): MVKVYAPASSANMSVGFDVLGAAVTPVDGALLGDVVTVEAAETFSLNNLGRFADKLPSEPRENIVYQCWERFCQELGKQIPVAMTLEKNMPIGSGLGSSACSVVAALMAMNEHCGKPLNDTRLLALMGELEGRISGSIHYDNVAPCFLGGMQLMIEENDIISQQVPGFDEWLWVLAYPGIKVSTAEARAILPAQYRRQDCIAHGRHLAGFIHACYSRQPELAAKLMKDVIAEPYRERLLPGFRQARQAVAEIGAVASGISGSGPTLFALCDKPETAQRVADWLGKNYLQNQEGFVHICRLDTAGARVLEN

[3] = target: T2, L(+)-lactate dehydrogenase from rabbit muscle (Oryctolagus cuniculus, UniProt P13491); details: compared with that on pyruvate; cited from earlier work
T2 construct: rabbit muscle; host or cells: rabbit muscle

[4] = test system: CCCC=O; test: ADH enzyme assay of Adh1 (084), Km for aldehyde substrates; type: biochemical, Geobacillus thermoglucosidasius; details: other: reductive ADH assay, enzyme expressed in E. coli; pH 7.5
From the text: (§1) The Adh1 enzyme (084) expressed very well from its native gene in E. coli (see FIG. 32A).

[5] = test system: O=CCCCO; test: as above; type: biochemical, Geobacillus thermoglucosidasius; details: other: reductive ADH assay, enzyme expressed in E. coli; pH 7.5
From the text: as §1

In the case of `CCC(=O)C(=O)O` [2-Oxobutyrate], the “Activity (%) of L(+)-lactate dehydrogenase from A. eutrophus” value (“Activity (%) … from A. eutrophus” below) [1] is listed as 107.0%.

For `O=C(O)CCC(=O)C(=O)O` [2-Oxoglutarate], the “Activity (%) … from A. eutrophus” value [1] is given as 79.6%.

For `CCCC(=O)C(=O)O` [2-Oxovalerate], the “Activity (%) … from A. eutrophus” value [1] is listed as 125.0%.

For `O=C(O)C(=O)CF` [3-Fluoropyruvate], the “Activity (%) … from A. eutrophus” value [1] is listed as 33.6%.

For `CC(C)C(=O)C(=O)O` [3-Methyl-2-oxobutyrate], the “Activity (%) … from A. eutrophus” value [1] is given as 28.5%.

For `N[C@H](CCO)C(=O)O` [D-homoserine], the Km [2] is given as 31.8 ± 7.2 mM.

In the case of `O=CC(=O)O` [Glyoxylate], the “Activity (%) of L(+)-lactate dehydrogenase from rabbit muscle” value [3] is listed as 23.9%.

For `N[C@H](CO)CCO` [L-2-amino-1,4-butanediol], the Km [2] is listed as 11.6 ± 6.5 mM.

In the case of `CCOC(=O)[C@@H](N)CCO` [L-homoserine ethyl ester], the Km [2] is listed as 1.9 ± 0.5 mM.

For `CC(C)COC(=O)[C@@H](N)CCO` [L-homoserine isobutyl ester], the Km [2] is given as 6.9 ± 1.1 mM.

For `CC(C)OC(=O)[C@@H](N)CCO` [L-homoserine isopropyl ester], the Km [2] is given as 1.2 ± 0.5 mM.

For `COC(=O)[C@@H](N)CCO` [L-homoserine methyl ester], the Km [2] is listed as 4.9 ± 2 mM.

In the case of `CCCOC(=O)[C@@H](N)CCO` [L-homoserine n-propyl ester], the Km [2] is given as 3.5 ± 0.4 mM.

For `N[C@@H](CCO)C(=O)O` [L-homoserine], the Km [2] is listed as 0.14 ± 0.04 mM.

With “Adh1 enzyme (084) (Geobacillus sp. M10EXG)” the Km [4] was 1.2 mM and the Km [5] was 4.0 mM.
